# Patent publication US10457709B2, “Antimicrobial peptides, their variants and uses” (priority 2015, dated 2019)
# Read-outs that look alike come from different tables or passages of the source. Square brackets hold non-standard residues; d marks the D form. Peptide text beside a SMILES is read from it.
# How the values were obtained:
# [1] = test system: Pseudomonas aeruginosa clinical strains; format: cell-based; settings: microdilution, Muller Hinton broth-cation adjusted, 0.02% BSA, 0.2% acetic acid
# Outline: (§1)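 MIC recorded as the lowest peptide level, within 0.125–128 μg/ml, that left no visible growth after 20–24 h at 37° C. Inoculum was 5.0×10^5 cfu/ml of clinical isolates. Medium was potato dextrose broth for yeasts and Mueller Hinton broth for bacteria, in a broth microdilution format.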
# [2] = test system: all the bacteria and yeasts tested; format: cell-based
# Outline: as §1
# [3] = test system: Escherichia coli clinical strains; format: cell-based; settings: microdilution, Muller Hinton broth-cation adjusted, 0.02% BSA, 0.2% acetic acid
# Outline: as §1
# [4] = test system: Klebsiella pneumoniae clinical strains; format: cell-based; settings: microdilution, Muller Hinton broth-cation adjusted, 0.02% BSA, 0.2% acetic acid
# Outline: as §1
# [5] = test system: Acinetobacter johnsonii clinical strains; format: cell-based; settings: Acinetobacter johnsonii clinical strain 1; microdilution, Muller Hinton broth-cation adjusted, 0.02% BSA, 0.2% acetic acid
# Outline: as §1
# [6] = test system: C. glabrata clinical strains; assay: MIC, clinical yeast strains; format: cell-based, Candida glabrata; parameters: unit: µg/ml
# Outline: as §1
# [7] = test system: C. quillermondiae clinical strains; assay: MIC, clinical yeast strains; format: cell-based, Candida quillermondiae; parameters: unit: μg/ml; settings: C. quillermondiae clinical yeast strain 1
# Outline: as §1
# [8] = test system: Streptococcus pneumoniae clinical strains; format: cell-based; parameters: Minimum inhibitory concentration: unit: μg/ml; settings: microdilution, Muller Hinton broth-cation adjusted, 0.02% BSA, 0.2% acetic acid
# Outline: as §1
# [9] = test system: Proteus mirabilis clinical strains; format: cell-based; parameters: Minimum inhibitory concentration: unit: μg/ml; settings: for Minimum inhibitory concentration: microdilution, Muller Hinton broth-cation adjusted, 0.02% BSA, 0.2% acetic acid
# Outline: as §1
# [10] = test system: Serratia marcescens clinical strains; format: cell-based; parameters: Minimum inhibitory concentration: unit: μg/ml; settings: for Minimum inhibitory concentration: microdilution, Muller Hinton broth-cation adjusted, 0.02% BSA, 0.2% acetic acid
# Outline: as §1
# [11] = test system: Enterobacter cloacae clinical strains; format: cell-based; parameters: Minimum inhibitory concentration: unit: μg/ml; settings: microdilution, Muller Hinton broth-cation adjusted, 0.02% BSA, 0.2% acetic acid
# Outline: as §1
# [12] = test system: Staphylococcus aureus clinical strains; format: cell-based; parameters: Minimum inhibitory concentration: unit: μg/ml; settings: microdilution, Muller Hinton broth-cation adjusted, 0.02% BSA, 0.2% acetic acid
# Outline: as §1
# [13] = test system: Acinetobacter baumannii clinical strains; format: cell-based; parameters: Minimum inhibitory concentration: unit: μg/ml; settings: microdilution, Muller Hinton broth-cation adjusted, 0.02% BSA, 0.2% acetic acid
# Outline: as §1
# [14] = test system: Candida albicans clinical strains; assay: MIC, clinical yeast strains; format: cell-based; parameters: unit: μg/ml
# Outline: as §1
# [15] = test system: C. parapsilosis clinical strains; assay: MIC, clinical yeast strains; format: cell-based, Candida parapsilosis; parameters: unit: µg/ml
# Outline: as §1
smiles,measurement,setting,value
CC(C)C[C@@H](NC(=O)[C@H](N)CCCNC(=N)N)C(=O)N[C@H](CCCCN)C(=O)N[C@H](Cc1c[nH]c2ccccc12)C(=O)N[C@H](Cc1ccccc1)C(=O)N[C@H](CC(C)C)C(=O)N[C@H](CC(C)C)C(=O)N[C@H](Cc1ccccc1)C(=O)N[C@H](CCCNC(=N)N)C(=O)N[C@H](CCCCN)C(=O)N[C@H](CCCNC(=N)N)C(=O)O [Chain308D] (H-[dR][dL][dK][dW][dF][dL][dL][dF][dR][dK][dR]-OH),Minimum inhibitory concentration,[1]; Pseudomonas aeruginosa clinical strain 1,8
same,Minimum inhibitory concentration,[1]; Pseudomonas aeruginosa clinical strain 2,8
same,Minimum inhibitory concentration,[1]; Pseudomonas aeruginosa clinical strain 3,4
same,Minimum inhibitory concentration,[1]; Pseudomonas aeruginosa clinical strain 4,4
same,Minimum inhibitory concentration,[1]; Pseudomonas aeruginosa clinical strain 5,4
same,MICs against all the bacteria and yeasts tested,[2],0.5 to 32 µg/mL
same,Minimum inhibitory concentration,[3]; Escherichia coli clinical strain 1,1
same,Minimum inhibitory concentration,[3]; Escherichia coli clinical strain 2,0.5
same,Minimum inhibitory concentration,[3]; Escherichia coli clinical strain 3,1
same,Minimum inhibitory concentration,[3]; Escherichia coli clinical strain 4,1
same,Minimum inhibitory concentration,[3]; Escherichia coli clinical strain 5,1
same,Minimum inhibitory concentration,[4]; Klebsiella pneumoniae clinical strain 1,4
same,Minimum inhibitory concentration,[4]; Klebsiella pneumoniae clinical strain 2,4
same,Minimum inhibitory concentration,[4]; Klebsiella pneumoniae clinical strain 3,4
same,Minimum inhibitory concentration,[4]; Klebsiella pneumoniae clinical strain 4,4
same,Minimum inhibitory concentration,[4]; Klebsiella pneumoniae clinical strain 5,4
same,Minimum inhibitory concentration,[5],4
same,Minimum inhibitory concentration,[6]; C. glabrata clinical yeast strain 1,16
same,Minimum inhibitory concentration,[6]; C. glabrata clinical yeast strain 2,16
same,Minimum inhibitory concentration,[6]; C. glabrata clinical yeast strain 3,16
same,Minimum inhibitory concentration,[6]; C. glabrata clinical yeast strain 4,16
same,Minimum inhibitory concentration,[7],4
same,Minimum inhibitory concentration,[8]; Streptococcus pneumoniae clinical strain 1,8
same,Minimum inhibitory concentration,[8]; Streptococcus pneumoniae clinical strain 2,4
same,Minimum inhibitory concentration,[8]; Streptococcus pneumoniae clinical strain 3,8
same,Minimum inhibitory concentration,[8]; Streptococcus pneumoniae clinical strain 4,2
same,Minimum inhibitory concentration,[8]; Streptococcus pneumoniae clinical strain 5,4
same,Minimum inhibitory concentration,[9]; Proteus mirabilis clinical strain 1,>128
same,Minimum inhibitory concentration,[9]; Proteus mirabilis clinical strain 2,32
same,Minimum inhibitory concentration,[9]; Proteus mirabilis clinical strain 3,128
same,Minimum inhibitory concentration,[9]; Proteus mirabilis clinical strain 4,>128
same,Minimum inhibitory concentration,[9]; Proteus mirabilis clinical strain 5,>128
same,MICs against Proteus mirabilis,[9]; clinical strains,64 to 128 µg/mL
same,Minimum inhibitory concentration,[10]; Serratia marcescens clinical strain 1,128
same,Minimum inhibitory concentration,[10]; Serratia marcescens clinical strain 2,128
same,Minimum inhibitory concentration,[10]; Serratia marcescens clinical strain 3,64
same,Minimum inhibitory concentration,[10]; Serratia marcescens clinical strain 4,>128
same,Minimum inhibitory concentration,[10]; Serratia marcescens clinical strain 5,128
same,MICs against Serratia marcescens,[10]; clinical strains,64 to 128 µg/mL
same,Minimum inhibitory concentration,[11]; Enterobacter cloacae clinical strain 1,2
same,Minimum inhibitory concentration,[11]; Enterobacter cloacae clinical strain 2,2
same,Minimum inhibitory concentration,[11]; Enterobacter cloacae clinical strain 3,2
same,Minimum inhibitory concentration,[11]; Enterobacter cloacae clinical strain 4,2
same,Minimum inhibitory concentration,[11]; Enterobacter cloacae clinical strain 5,2
same,Minimum inhibitory concentration,[12]; Staphylococcus aureus clinical strain 1,1
same,Minimum inhibitory concentration,[12]; Staphylococcus aureus clinical strain 2,2
same,Minimum inhibitory concentration,[12]; Staphylococcus aureus clinical strain 3,1
same,Minimum inhibitory concentration,[12]; Staphylococcus aureus clinical strain 4,2
same,Minimum inhibitory concentration,[12]; Staphylococcus aureus clinical strain 5,2
same,Minimum inhibitory concentration,[13]; Acinetobacter baumannii clinical strain 1,4
same,Minimum inhibitory concentration,[13]; Acinetobacter baumannii clinical strain 2,4
same,Minimum inhibitory concentration,[13]; Acinetobacter baumannii clinical strain 3,4
same,Minimum inhibitory concentration,[13]; Acinetobacter baumannii clinical strain 4,2
same,Minimum inhibitory concentration,[13]; Acinetobacter baumannii clinical strain 5,2
same,Minimum inhibitory concentration,[14]; Candida albicans clinical yeast strain 1,16
same,Minimum inhibitory concentration,[14]; Candida albicans clinical yeast strain 2,16
same,Minimum inhibitory concentration,[14]; Candida albicans clinical yeast strain 3,16
same,Minimum inhibitory concentration,[14]; Candida albicans clinical yeast strain 4,16
same,Minimum inhibitory concentration,[14]; Candida albicans clinical yeast strain 5,16
same,Minimum inhibitory concentration,[15]; C. parapsilosis clinical yeast strain 1,8
same,Minimum inhibitory concentration,[15]; C. parapsilosis clinical yeast strain 2,8
same,Minimum inhibitory concentration,[15]; C. parapsilosis clinical yeast strain 3,8
same,Minimum inhibitory concentration,[15]; C. parapsilosis clinical yeast strain 4,4
